Values quoted from earlier work as cited in US9873704B2, “Heterocyclic compounds and their uses” (Amgen Inc., priority 2009, dated 2018).

Tests used:
p110δ = target: T1, p110δ (Homo sapiens, UniProt O00329); conditions: cited from earlier work
T1 sequence (O00329 1-1044): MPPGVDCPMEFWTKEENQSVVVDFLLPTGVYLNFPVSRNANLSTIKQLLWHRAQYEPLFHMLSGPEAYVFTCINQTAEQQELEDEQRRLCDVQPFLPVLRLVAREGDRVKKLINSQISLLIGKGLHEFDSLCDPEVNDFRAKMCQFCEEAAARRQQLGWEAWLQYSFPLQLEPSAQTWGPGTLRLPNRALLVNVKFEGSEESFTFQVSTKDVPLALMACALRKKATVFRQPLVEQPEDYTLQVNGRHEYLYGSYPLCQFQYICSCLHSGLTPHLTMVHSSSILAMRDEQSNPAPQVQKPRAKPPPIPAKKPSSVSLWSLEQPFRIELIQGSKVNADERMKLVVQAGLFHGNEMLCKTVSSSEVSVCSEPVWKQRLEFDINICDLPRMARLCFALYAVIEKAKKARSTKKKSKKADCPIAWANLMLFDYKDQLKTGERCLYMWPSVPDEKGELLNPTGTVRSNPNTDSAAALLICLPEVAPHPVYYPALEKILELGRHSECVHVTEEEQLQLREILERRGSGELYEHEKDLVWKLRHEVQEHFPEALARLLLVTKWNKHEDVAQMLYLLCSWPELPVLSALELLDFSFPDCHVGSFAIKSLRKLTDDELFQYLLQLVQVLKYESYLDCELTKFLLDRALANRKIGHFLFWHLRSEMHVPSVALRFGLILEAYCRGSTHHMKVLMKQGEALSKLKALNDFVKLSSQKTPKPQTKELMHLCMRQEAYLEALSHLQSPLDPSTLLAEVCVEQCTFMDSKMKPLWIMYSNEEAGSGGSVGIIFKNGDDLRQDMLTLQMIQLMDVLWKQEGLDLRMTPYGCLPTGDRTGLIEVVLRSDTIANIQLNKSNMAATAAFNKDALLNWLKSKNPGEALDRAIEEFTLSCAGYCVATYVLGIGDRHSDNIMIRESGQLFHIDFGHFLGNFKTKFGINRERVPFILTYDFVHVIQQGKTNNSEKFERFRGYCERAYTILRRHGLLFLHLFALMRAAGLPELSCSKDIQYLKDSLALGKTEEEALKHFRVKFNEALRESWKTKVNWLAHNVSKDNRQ

protein kinases = conditions: cited from earlier work
murine model of asthma = conditions: ovalbumin-induced airway inflammation; cited from earlier work

## Cc1ccccc1-n1c(Cn2cnc3c(N)ncnc32)nc2cccc(C)c2c1=O [IC87114]
p110δ
  inhibits p110δ: high nanomolar range (triple digit)
Protein kinases
  activity against any protein kinases tested: no activity
Murine model of asthma
  inflammation and disease in a murine model of asthma: significantly ameliorate inflammation and disease
